From EP0321208A1, “Improvements in or relating to avian control” (priority 1987, dated 1989)
Where two headings read alike, the source gives them in different places.

Key:
quail chymotrypsin = assay: ATEE assay: inhibition of quail intestinal chymotrypsin activity; assay type: biochemical, Japanese quail; settings: compound 1 x 10⁻⁵M; ATEE substrate; percentage inhibition of control activity ± standard deviation (n = 3); 5 min, 10 µM
Description: The substrate was prepared by dissolving ATEE (10 mg) in Tris-HCl buffer of pH 7.5 containing 30% (v/v) of methanol (25 ml). The quail intestine protease activity was partially purified as described above prior to testing for chymotrypsin activity. The reaction was carried out in a quartz cuvette (1 x 0.25 x 1 cm³) containing substrate (1 ml) and 100 mM Tris-HCl buffer (200 µl). The reaction was started by the addition of the partially purified intestine protease (200 µl) and followed bv the decrease in absorbance at 237 nm over a 5 minute period. All determinations were carried out in triplicate against a reagent blank.

bullfinch trypsin = assay: BAEE assay: inhibition of bullfinch intestinal trypsin activity; assay type: biochemical; settings: compound 1 x 10⁻⁵M; BAEE substrate; percentage inhibition of control activity ± standard deviation (n = 3); 7 min, 10 µM
Description: (§1) Dried avian intestine powder (500 mg) was extracted for 30 minutes in 1 mM HC₁ (5 ml). The extract was centrifuged at 22,000 x g for 30 minutes at 4°C. The resultant supernatant was applied to a column of Sephadex G-50, medium grade (360 mm x 15 mm) and eluted with 0.5 mM HCl at 0.7 ml/min. Fractions (3.5 ml) were collected and tested for the presence of protein by determining their absorbance at 280 nm. The proteinaceous fractions were bulked and concentrated by passing them through an ultrafiltration unit (YM 30 filter). The concentrate was collected and kept at 4°C throughout its use.
The substrate was prepared bv dissolving BAEE (10 mg) in a mixture of 50 mM Tris-HCl buffer of pH 7.5 (24 ml) and 5% (w/v) calcium chloride solution (1 ml). The bullfinch intestine protease activity was partially purified as described above prior to testing for trypsin activity. The reaction was carried out in a quartz cuvette (1 x 0.25 x 1 cm³) containing substrate (1 ml) and 50 mM Tris-HCl buffer (200 µl). The reaction was started by the addition of the partially purified intestine protease 1200 µl) and followed by the decrease in absorbance at 253 nm over a 7 minute period. All determinations were carried out in triplicate against a reagent blank.
(§2) In both the chymotrypsin and the trypsin assays a control was however carried out using the 200 µl of buffer containing no added compound.

pigeon trypsin = assay: TAME assay: inhibition of pigeon intestinal trypsin activity; assay type: biochemical; settings: for Inhibition of Activity: compound 60 µg/ml, TAME substrate, percentage inhibition of control activity ± standard deviation (n = 3), 5 min
Description: as §1
The substrate was prepared by dissolving TAME (19 mg) in a mixture of 100 mM Tris-HCl buffer of pH 7.5 (50 ml) and 5% (w/v) calcium chloride solution (2 ml). The pigeon intestine protease was partially purified as described above prior to testing for trypsin activity. The reaction was carried out in a quartz cuvette (1 x 0.25 x 1 cm³) containing substrate (3 ml) and 100 mM Tris-HCl buffer pH 7.5 (100 µl). The reaction was started by the addition of the partially purified intestine protease (100 µl) and followed by the decrease in absorbance at 247 nm over a 5 minute period.
as §2

feral pigeons [1] = assay: Three day no-choice feeding test with feral pigeons; assay type: in vivo; settings: 0.5% w/w compound/pellet, ± standard deviation; for Mean weight difference: after the test compared with before; for Mean consumption: treated food
Description: (§3) Feral pigeons were transferred from a communal outdoor aviary to individual cages and maintained on a 10 hour light - 14 hour dark cycle. Birds were gradually weaned away from their normal diet of maize, wheat and maple peas to a standard laboratory diet of turkey starter pellets.
(§4) The pellets were oven dried and then left to absorb atmospheric moisture. The control food was sprayed with the same volume of acetone/water mixture.
(§5) A group of 35 feral pigeons was caged individually for the trials which used eight compounds of formula (I) together with sucrose octaacetate and dimethyl anthranilate, both of which are substances which are known to be avian repellents. Each bird was subjected to treatment with each compound in a random order subject to the limitation of a latin square design. Each treatment was presented to the birds in no-choice and two-choice conditions. The no-choice phase lasted 3 days, during which a bird was presented with a single bowl containing 120 g of treated food. Each bird was weighed before and after the no-choice phase, as was the amount of food remaining. There immediately followed a two-choice phase in which the birds could choose between food treated with a given chemical and a bowl containing otherwise identical pellets without the chemical (the control treatment utilising two bowls of acetone/water treated pellets, one of which was arbitrarily selected as the control). The two-choice phase lasted four days during which food consumption was monitored daily. The position of the food bowls was alternated each day in order to overcome the confusing of food preference with position preference and ample water and grit were supplied throughout the trial.

feral pigeons [2] = assay: Four day two-choice feeding test with feral pigeons; assay type: in vivo; settings: for Mean consumption of treated food: four day two-choice, 0.5% w/w compound/pellet; for deterrent effect on food consumption: two-choice test, proportions of treated and untreated food consumed, statement in words
Description: as §3, §4, §5
The data obtained in the four day two-choice test is presented in Table 5 for mean consumption of treated food. […]

[3] = pear buds
Japanese quail [4] = assay: No choice feeding trial with Japanese quail; assay type: in vivo; settings: 5,000 ppm additive in turkey starter crumbs, 14 days, ± standard deviation
From the text: (§6) (A) Six week old female japanese quail were preconditoned by weighing them seven days before the start of the feeding trial. Five quail were placed in each of four cages and each cage was provided with a different diet, these being (a) a control diet of standard turkey starter crumbs (TSC), (b) TSC treated with 5,000 ppm cinnamamide, (c) TSC treated with 5,000 ppm 4-hydroxy-3,5-dimethoxycinnamic acid, and (d) TSC treated with 2,500 ppm cinnamamide + 2,500 ppm 4-hydroxy-3,5-dimethoxycinnamic acid. The treated TSC was prepared in each case by dissolving/-suspending the compound or compounds in diethyl ether (1500 ml) and mixing this with TSC (2000 g) at 0.25% or 0.5% w/w concentration compound/TSC in an industrial food mixer for 1 hour to evaporate off the diethyl ether and produce a homogeneous mixture. The control was prepared by mixing TSC (2000 g) with diethyl ether for 1 hour in an industrial food mixer. The amount of each diet consumed and the weight gain of the birds was recorded on a daily basis for a period of 14 days. The trial was carried out in duplicate.
The results of the trial are presented in Table 2, together with the standard deviation. It will be seen that diets (b) and (d) produced a decreased increase in body weight as compared with the control diet (a). It should be appreciated that increased consumption, which apparently occurs with diets (c) and (d), can be the result of a compensation against the occurrence of the enzyme inhibitory effect and a consequent reduction in value of the food consumed.

Japanese quail [5] = assay: Feeding trial with choice, Japanese quail; assay type: in vivo; settings: for Increase in body weight: value is for the birds offered both diets; for Average food eaten: treated diet eaten
From the text: as §6
(B) In a variation of the treatment decribed in (A) four quail were placed in each of four cages and each cage was offered a choice between a control diet of TSC and TSC treated with one of (a) 5,000 ppm cinnamamide, (b) 2,500 ppm cinnamamide, (c) 1,000 ppm cinnamamide, and (d) 2,500 ppm cinnamamide + 2,500 ppm 4-hydroxy-3,5-dimethoxycinnamic acid. The various diets were prepared as described under (A).
The results of the trial are presented in Table 3, together with the standard deviation. It will be seen that in each case the birds consume less treated than untreated food and that although the weight gain was the least for the birds offered the control + 5,000 ppm cinnamamide diets, it was the 2,500 ppm cinnamamide + 2,500 ppm 4-hydroxy-3,5-dimethoxycinnamic acid diet which was least consumed.

[6] = choice between control diet and diet with 1,000 ppm additive
[7] = choice between control diet and diet with 2,500 ppm additive
[8] = choice between control diet and diet with 5,000 ppm additive

SMILES | Inhibition of Activity Chymotrypsin (quail chymotrypsin) [percentage] | Inhibition of Activity Trypsin (bullfinch trypsin) [percentage] | Inhibition of Activity (pigeon trypsin) [percentage] | Mean weight difference (feral pigeons [1]) [grams] | Mean consumption (feral pigeons [1]) [grams] | Mean consumption of treated food (feral pigeons [2]) [grams] | deterrent effect on food consumption (feral pigeons [2]) | residues as a percentage of the initial level ([3]; 192 h) [%] | residues as a percentage of the initial level ([3]; 1224 h) [%] | activity against pigeon intestinal trypsin (pigeon trypsin; statement in words) | Average food eaten (Japanese quail [4]) [g/bird/day] | Increase in body weight (Japanese quail [4]) [g/bird/day] | Increase in body weight (Japanese quail [5]; [6]) [g/bird/day] | Increase in body weight (Japanese quail [5]; [7]) [g/bird/day] | Increase in body weight (Japanese quail [5]; [8]) [g/bird/day] | deterrent effect on food consumption (Japanese quail [5]; quail, statement in words) | Average food eaten (Japanese quail [5]; [6]) [g/bird/day] | Average food eaten (Japanese quail [5]; [7]) [g/bird/day] | Average food eaten (Japanese quail [5]; [8]) [g/bird/day]
COc1cc(C=CC(=O)O)cc(OC)c1OC [3,4,5-Trimethoxycinnamic acid] | 88 ± 2 | 36 ± 1 | 0 | -1.5 ± 0.9 | 53.0 ± 2.1 | 19.8 ± 2.7 | most marked | – | – | – | – | – | – | – | – | – | – | – | –
O=C(O)C=Cc1ccccc1 [Cinnamic Acid, cinnamic acid] | 32 ± 3 | 85 ± 2 | 93 ± 3 | 2.4 ± 1.1 | 60.4 ± 3.1 | 25.2 ± 2.9 | – | 41 | 3 | – | – | – | – | – | – | – | – | – | –
O=C(O)C=Cc1ccc(O)c(O)c1 [3,4-Dihydroxycinnamic acid] | 85 ± 2 | 43 ± 3 | 22 ± 1 | 2.3 ± 1.1 | 63.3 ± 3.0 | 31.1 ± 3.4 | – | 8 | – | – | – | – | – | – | – | – | – | – | –
NC(=O)C=Cc1ccccc1 [Cinnamamide, cinnamamide] | 5 ± 1 | 64 ± 2 | 0 | -16.2 ± 1.3 | 22.3 ± 2.7 | 6.0 ± 1.5 | most marked | – | – | no activity was observed | 17 ± 0.3 | 0.14 ± 0.04 | 1.29 ± 0.10 | 1.34 ± 0.20 | 0.66 ± 0.10 | a deterrent effect on food consumpton was noted | 6 ± 0.2 | 5 ± 0.4 | 4 ± 0.2
COc1cc(C=CC(=O)O)cc(OC)c1O [4-Hydroxy-3,5-dimethoxy-cinnamic acid, 4-Hydroxy-3,5-dimethoxycinnamic acid] | 94 ± 2 | 22 ± 2 | 16 ± 4 | 2.3 ± 0.9 | 60.2 ± 3.3 | 29.2 ± 2.8 | – | – | – | – | 21 ± 0.3 | 0.89 ± 0.10 | – | – | – | – | – | – | –
